1 compound from patent US6583146B1, “Thiazolopyrimidine compounds, its production and use” (Takeda Chemical Industries, Ltd., priority 1999, dated 2003) can be followed below.

SMILES strings stand for the structures.

For the test, the target named is T1, human adenosine A3 receptor (Homo sapiens, UniProt P0DMS8).
T1 construct: expressed in transfected cells; membrane fraction used
T1 sequence (P0DMS8 1-318): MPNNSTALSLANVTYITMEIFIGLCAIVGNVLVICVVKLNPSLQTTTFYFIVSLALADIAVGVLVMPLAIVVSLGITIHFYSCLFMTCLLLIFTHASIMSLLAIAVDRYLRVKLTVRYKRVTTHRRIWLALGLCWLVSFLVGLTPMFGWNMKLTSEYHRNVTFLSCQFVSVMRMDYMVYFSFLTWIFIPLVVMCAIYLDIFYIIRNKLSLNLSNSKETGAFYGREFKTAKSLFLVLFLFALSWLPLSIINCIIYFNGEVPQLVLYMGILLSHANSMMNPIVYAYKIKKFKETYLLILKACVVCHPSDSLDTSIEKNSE
Kind of test: Binding assays with adenosine A3 receptor ([3H]-NECA displacement, A3AR/CHO cell membranes). To be noted: [3H]-NECA as ligand; 100 μg/mL membranes of CHO cells expressing human adenosine A3 receptor; 1 hour at room temperature; read-out: IC50 (concentration that inhibits 50% specific binding of [3H]-NECA to the membrane). As to the method: The following procedures in this Example were carried out according to the methods described in Molecular Cloning —Cold Spring Harbor Laboratory (1989) or protocol specified by manufacturers.
Cloning of the human adenosine A3 receptor gene was carried out by the polymerase chain reaction (PCR) from human brain cDNA. Using 1 ng of brain cDNA (Quick-Clone cDNA, TOYOBO, Osaka) as template, PCR was performed in DNA Thermal Cycler 480 (Perkin Elmer) (reaction conditions: 35 cycles of 1 min at 95° C., 1 min at 66° C., and 2 min at 75° C.) by mixing primers (50 pmol each),
5′-[…]-3′ [Sequence No. 1] and 5′-[…]-3′ [Sequence No. 2], which were designed referring to nucleotide sequence of adenosine A3 receptor gene reported by Salvatore et. al., (Proc. Natl. Acad. Sci. U. S. A., 90:10365-10369, 1993) and TaKaRa LA PCR Kit Ver.2 (TaKaRa Shuzo Co. Ltd., Kyoto). The PCR product was electrophoresed and 1.0 kb DNA fragment was recovered. The DNA fragment encoding adenosine A3 receptor was cloned using Original TA Cloning Kit (FUNAKOSHI, Tokyo).
Thus obtained plasmid was digested with Xba I (TaKaRa Shuzo Co. Ltd., Kyoto), blunted with T4 DNA polymerase (TaKaRa Shuzo Co. Ltd., Kyoto) and digested with Sal I (TaKaRa Shuzo Co. Ltd., Kyoto) to obtain adenosine A3 receptor gene fragment. […]

As for `COc1ccc(-c2c(-c3ccncc3)sc3nc(=O)cc(N)n23)cc1` [Example Compound 1, 5-Amino-3-(4-methoxyphenyl)-2-(4-pyridyl)-7H-thiazolo[3,2-a]pyrimidin-7-one], the IC50 worked out at 3.5 nM.
